Measured values reported in the supplement of paper PMC8671470.
Structures can show the parent of a compound that is named as a salt. ± gives the standard deviation of the averaged measurements.

How the values were obtained:
Settings in all cases: 72 h
Mono-Mac-6 = test system: Mono-Mac-6
Procedure, shortened: (§1)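 Seeded in RPMI 1640 at densities within the linear growth range, fifteen myeloid leukaemia cell lines were dispensed into 384-well plates with acoustically pre-printed compounds spanning five tenfold doses from 1 to 10,000 nM, in duplicate. The plates were kept for 72 h at 37 °C in 5% CO2 before luminescent ATP viability was measured and normalised to vehicle and to a positive control at 10 µM. Curves were fitted with a four-parameter log-logistic model. The IC50 was taken from those curves.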

KU-812 [1] = test system: KU-812
Procedure, shortened: as §1

HEL [2] = test system: HEL
Procedure, shortened: as §1

MOLM-13 [3] = test system: MOLM-13
Procedure, shortened: as §1

K-562 [4] = test system: K-562
Procedure, shortened: as §1

KG-1 [5] = test system: KG-1
Procedure, shortened: as §1

THP-1 [6] = test system: THP-1
Procedure, shortened: as §1

KCL-22 [7] = test system: KCL-22
Procedure, shortened: as §1

SHI-1 [8] = test system: SHI-1
Procedure, shortened: as §1

HL-60 [9] = test system: HL-60
Procedure, shortened: as §1

LAMA-84 = test system: LAMA-84
Procedure, shortened: as §1

MV4-11 [10] = test system: MV4-11
Procedure, shortened: as §1

BV-173 = test system: BV-173
Procedure, shortened: as §1

NOMO-1 [11] = test system: NOMO-1
Procedure, shortened: as §1

ML-2 [12] = test system: ML-2
Procedure, shortened: as §1

KU-812 [13] = assay: cell viability (% survival relative to DMSO control, bortezomib = 0%); higher = less cytotoxic
Procedure, shortened: (§2)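 Percent survival figures are means of duplicate wells. They were obtained by CellTiter-Glo luminescence after 10 AML and 5 CML cell lines spent 72 h at 37 °C with 5% CO2 in 384-well plates with compounds at 1, 10, 100, 1000 or 10000 nM. Vehicle was set to 100% and a 10 µM positive control to 0%.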

HEL [14] = assay: as above
Procedure, shortened: as §2

MOLM-13 [15] = assay: as above
Procedure, shortened: as §2

K-562 [16] = assay: as above
Procedure, shortened: as §2

KG-1 [17] = assay: as above
Procedure, shortened: as §2

THP-1 [18] = assay: as above
Procedure, shortened: as §2

KCL-22 [19] = assay: as above
Procedure, shortened: as §2

SHI-1 [20] = assay: as above
Procedure, shortened: as §2

HL-60 [21] = assay: as above
Procedure, shortened: as §2

MV4-11 [22] = assay: as above
Procedure, shortened: as §2

NOMO-1 [23] = assay: as above
Procedure, shortened: as §2

ML-2 [24] = assay: as above
Procedure, shortened: as §2

HL-60 [25] = assay: cell viability (% survival relative to DMSO control); higher = less cytotoxic
Procedure, shortened: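 In 384-well plates, the full library was rescreened in duplicate on HL-60 cells in RPMI 1640 with 10% FBS, at 1–10,000 nM in five tenfold concentrations, for 72 h at 37 °C, 5% CO2. Each run also held DMSO or 100 nM of one of three metabolic inhibitors. Viability was measured by CellTiter-Glo and normalised to DMSO wells and to wells with proteasome inhibitor, present at 10 μM. Any area under the curve comes from four-parameter log-logistic fitting with drc and PharmacoGx.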

O=C(NCCN1CCC(n2c(O)nc3ccccc32)CC1)c1cc2cc(F)ccc2[nH]1 [FIPI]
Settings	IC50 (cell viability) [µM]
BV-173	> 10
HEL [2]	> 10
HL-60 [9]	> 10
K-562 [4]	6.19
KCL-22 [7]	> 10
KG-1 [5]	> 10
KU-812 [1]	> 10
LAMA-84	> 10
ML-2 [12]	> 10
MOLM-13 [3]	> 10
MV4-11 [10]	> 10
Mono-Mac-6	8.61
NOMO-1 [11]	> 10
SHI-1 [8]	> 10
THP-1 [6]	> 10

cell viability [%]
Settings	1 nM	10 nM	100 nM	1000 nM	10000 nM
HEL [14]	99.1	99.8	101	104	82.5
HL-60 [21]	105	103	112	97.7	92.2
K-562 [16]	99.1	106	108	101	27.3
KCL-22 [19]	100	98	91.1	94.9	67.7
KG-1 [17]	101	92.4	103	91.2	65.1
KU-812 [13]	104	92.9	105	106	66.2
ML-2 [24]	96.3	98.6	107	110	75.8
MOLM-13 [15]	79.6	104	98.9	95.4	69
MV4-11 [22]	91.3	88.1	100	94.6	53.2
NOMO-1 [23]	96.7	95.4	110	102	95.3
SHI-1 [20]	103	104	97.5	97.9	85
THP-1 [18]	95.8	93.9	101	105	96.3

cell viability [%], HL-60 [25]
Settings	0.001 µM	0.01 µM	0.1 µM	1 µM	10 µM
co-treatment: AZD3965 100 nM	104 ± 2.1	99.7 ± 3.9	103 ± 14	102 ± 4.5	107 ± 3.7
co-treatment: DMSO vehicle	101.7 ± 0.73	100.3 ± 0.26	104 ± 2.4	108 ± 4.5	107 ± 3
co-treatment: GSK2194069 100 nM	98.6 ± 1.2	99.3 ± 1.1	102 ± 6.9	106 ± 5.5	91.2 ± 1.8
co-treatment: pictilisib 100 nM	106 ± 9.6	105.7 ± 0.28	110 ± 12	110 ± 1.8	95.5 ± 7.1

Cc1cc2c(C(C)C)c(O)c(O)c(C=O)c2c(O)c1-c1c(C)cc2c(C(C)C)c(O)c(O)c(C=O)c2c1O [Gossypol]
Settings	IC50 (cell viability) [µM]
BV-173	1.6
HEL [2]	3.55
HL-60 [9]	3.87
K-562 [4]	3.67
KCL-22 [7]	2.86
KG-1 [5]	3.57
KU-812 [1]	2.41
LAMA-84	3.34
ML-2 [12]	2.1
MOLM-13 [3]	2.98
MV4-11 [10]	3.43
Mono-Mac-6	2.81
NOMO-1 [11]	2.88
SHI-1 [8]	6.25
THP-1 [6]	2.54

cell viability [%]
Settings	1 nM	10 nM	100 nM	1000 nM	10000 nM
HEL [14]	101	104	101	108	0.902
HL-60 [21]	107	108	111	117	0.854
K-562 [16]	94.6	103	91	110	1.45
KCL-22 [19]	105	101	116	92.7	2.21
KG-1 [17]	95.8	98.9	105	101	5.89
KU-812 [13]	95	94.2	105	86.1	0.646
ML-2 [24]	103	103	105	82.6	0.171
MOLM-13 [15]	104	97.6	95.2	97.1	-0.453
MV4-11 [22]	97.7	91.2	93.6	104	-0.358
NOMO-1 [23]	97.2	97.5	104	94.1	0.946
SHI-1 [20]	101	106	105	98.2	28
THP-1 [18]	95.3	90.3	96.6	84.4	0.727

cell viability [%], HL-60 [25]
Settings	0.001 µM	0.01 µM	0.1 µM	1 µM	10 µM
co-treatment: AZD3965 100 nM	101 ± 4.7	106 ± 1.4	96.1 ± 3.3	102 ± 5.7	2.22 ± 0.25
co-treatment: DMSO vehicle	101 ± 2.6	104 ± 7.8	96.3 ± 2.1	102 ± 3.7	2.19 ± 0.23
co-treatment: GSK2194069 100 nM	107 ± 2.8	104 ± 11	90 ± 5.4	87.6 ± 11	2.81 ± 0.4
co-treatment: pictilisib 100 nM	104 ± 3.8	100 ± 3.6	93.97 ± 0.14	91.4 ± 10	1.94 ± 0.31

CCN(CCO)CCCC(C)Nc1ccnc2cc(Cl)ccc12 (stereo not given) [Hydroxychloroquine sulfate]
Settings	IC50 (cell viability) [µM]
BV-173	> 10
HEL [2]	> 10
HL-60 [9]	> 10
K-562 [4]	> 10
KCL-22 [7]	> 10
KG-1 [5]	> 10
KU-812 [1]	> 10
LAMA-84	> 10
ML-2 [12]	> 10
MOLM-13 [3]	> 10
MV4-11 [10]	> 10
Mono-Mac-6	> 10
NOMO-1 [11]	> 10
SHI-1 [8]	> 10
THP-1 [6]	> 10

cell viability [%]
Settings	1 nM	10 nM	100 nM	1000 nM	10000 nM
HEL [14]	89.5	102	99	128	98
HL-60 [21]	125	101	96.5	98.5	84.1
K-562 [16]	84.1	97.8	105	101	111
KCL-22 [19]	88.5	113	99.1	119	99.3
KG-1 [17]	95.1	108	94.6	112	114
KU-812 [13]	93	103	105	99	97
ML-2 [24]	92.7	128	92.2	106	105
MOLM-13 [15]	81	117	91.8	127	108
MV4-11 [22]	78.8	112	93.2	102	106
NOMO-1 [23]	94.4	106	98.8	94.9	98.2
SHI-1 [20]	95.5	106	101	127	104
THP-1 [18]	91.5	106	102	92.2	110

cell viability [%], HL-60 [25]
Settings	0.001 µM	0.01 µM	0.1 µM	1 µM	10 µM
co-treatment: AZD3965 100 nM	91.8 ± 6	97.2 ± 7.5	105 ± 4	96.7 ± 1.4	101 ± 1.3
co-treatment: DMSO vehicle	92.3 ± 6.9	98.9 ± 4.7	101 ± 6.6	98.9 ± 6.2	99.8 ± 2.9
co-treatment: GSK2194069 100 nM	97 ± 19	101 ± 2.1	111 ± 7.2	99.5 ± 8	104 ± 7.1
co-treatment: pictilisib 100 nM	86.1 ± 14	101 ± 1.4	109 ± 7.7	107 ± 11	103 ± 9.1
